Laboratory results reported in patent US9611246B2, “Compositions, apparatus, systems, and methods for resolving electronic excited states” (HALLSTAR INNOVATIONS CORP., priority 2012, dated 2017).

Experiment: Singlet oxygen phosphorescence from photoexcited protoporphyrin IX in air saturated DMSO-d6
Type: physicochemical
Excerpt: Singlet oxygen was generated by pulsed laser excitation in the UV (355 nm) by protoporphyrin IX. Protoporphyrin IX was selected on the basis of its high extinction coefficient (FIG. 2). The solvent DMSO-d6 was selected because of good solubility of the sensitizer and stabilizers. The deuterated form of DMSO was used because of the longer singlet oxygen lifetime in deuterated solvents compared to solvents containing hydrogen. FIG. 10 and FIG. 11 show kinetic traces of singlet oxygen phosphorescence generated from photoexcitation of protoporphyrin IX. […] Excited state quenching of the protoporphyrin IX by the two compounds is unlikely to occur at these low stabilizer concentrations (μM).
In the previous experiments, singlet oxygen was generated by pulsed laser excitation in the UV spectral region (355 nm) of protoporphyrory IX. […] This was explained by a simple optical screening mechanism, where the compound of Formula I(a)(1) and alkoxy crylene absorb the UV light.
In this example, laser excitation was performed with visible light at 532 nm, where the compound of Formula I(a)(1) and the alkoxy crylene compound are transparent. […] The absence of singlet oxygen suppression with 532 nm excitation supports the optical screening mechanism with 355 nm excitation. […]

Which results are given for `COC(=O)C(C#N)=C1c2ccccc2-c2ccccc21` [Formula I(a)(1)]?
singlet oxygen phosphorescence (355 nm excitation, 250 μM stabilizer): significantly reduced singlet oxygen phosphorescence; concentration above which the amount of generated singlet oxygen was reduced (532 nm excitation): above 3 mM
